Numbers after ± are expanded uncertainties.
Settings: Liquid

CCC(C)O (centres undefined) [butan-2-ol]
Settings | vapor or sublimation pressure [kPa]
314.47 K | 6.08 ± 0.49
315.36 K | 6.43 ± 0.52
316.21 K | 6.81 ± 0.55
317.61 K | 7.45 ± 0.6
318.57 K | 7.92 ± 0.63
319.37 K | 8.35 ± 0.67
319.58 K | 8.45 ± 0.68
320.18 K | 8.77 ± 0.7
321.05 K | 9.23 ± 0.74
322.03 K | 9.8 ± 0.78
322.68 K | 10.19 ± 0.82
323.15 K | 10.48 ± 0.84
323.41 K | 10.64 ± 0.85
324.05 K | 11.04 ± 0.88
324.72 K | 11.47 ± 0.92
325.27 K | 11.84 ± 0.95
325.92 K | 12.31 ± 0.99
326.66 K | 12.81 ± 1
327.32 K | 13.16 ± 1.1
328.28 K | 14.03 ± 1.1
329.05 K | 14.61 ± 1.2
329.91 K | 15.31 ± 1.2
330.49 K | 15.79 ± 1.3
331.11 K | 16.31 ± 1.3
331.58 K | 16.71 ± 1.3
332.17 K | 17.25 ± 1.4
332.81 K | 17.87 ± 1.4
333.15 K | 18.2 ± 1.5
333.28 K | 18.33 ± 1.5
333.65 K | 18.68 ± 1.5
334.23 K | 19.24 ± 1.5
334.69 K | 19.71 ± 1.6
335.19 K | 20.2 ± 1.6
335.69 K | 20.71 ± 1.7
336.28 K | 21.33 ± 1.7
336.77 K | 21.85 ± 1.8
337.23 K | 22.35 ± 1.8
337.72 K | 22.87 ± 1.8
338.08 K | 23.28 ± 1.9
338.6 K | 23.87 ± 1.9
339.07 K | 24.43 ± 1.9
339.5 K | 24.95 ± 2
339.9 K | 25.43 ± 2
340.34 K | 25.97 ± 2.1
340.95 K | 26.79 ± 2.1
341.4 K | 27.36 ± 2.2
341.87 K | 27.99 ± 2.2
342.34 K | 28.63 ± 2.3
342.89 K | 29.37 ± 2.4
343.15 K | 29.76 ± 2.4
343.32 K | 29.97 ± 2.4
343.81 K | 30.67 ± 2.5
344.25 K | 31.31 ± 2.5
344.71 K | 31.99 ± 2.6
345.14 K | 32.63 ± 2.6
345.6 K | 33.33 ± 2.7
346.02 K | 33.99 ± 2.7
346.45 K | 34.67 ± 2.8
346.86 K | 35.32 ± 2.8
347.28 K | 36.01 ± 2.9
347.65 K | 36.63 ± 2.9
348.06 K | 37.31 ± 3
348.45 K | 37.99 ± 3
348.85 K | 38.64 ± 3.1
349.21 K | 39.29 ± 3.1
349.58 K | 39.95 ± 3.2
350.15 K | 40.97 ± 3.3
350.75 K | 42.05 ± 3.4
351.25 K | 43.03 ± 3.4
351.74 K | 43.96 ± 3.5
352.26 K | 44.97 ± 3.6
353.08 K | 46.6 ± 3.7
353.15 K | 46.75 ± 3.7
353.6 K | 47.65 ± 3.8
354.06 K | 48.61 ± 3.9
354.53 K | 49.61 ± 4
355 K | 50.63 ± 4
355.45 K | 51.63 ± 4.1
355.81 K | 52.39 ± 4.2
356.23 K | 53.33 ± 4.3
356.8 K | 54.63 ± 4.4
357.37 K | 55.96 ± 4.5
357.99 K | 57.41 ± 4.6
358.5 K | 58.67 ± 4.7
359.06 K | 60.03 ± 4.8
359.62 K | 61.41 ± 4.9
360.13 K | 62.73 ± 5
360.61 K | 63.97 ± 5.1
361.1 K | 65.29 ± 5.2
361.64 K | 66.71 ± 5.3
362.1 K | 67.99 ± 5.4
362.63 K | 69.43 ± 5.5
363.07 K | 70.69 ± 5.7
363.57 K | 72.12 ± 5.8
364 K | 73.36 ± 5.9
364.48 K | 74.72 ± 6
364.9 K | 76 ± 6.1
365.33 K | 77.31 ± 6.2
365.76 K | 78.65 ± 6.3
366.18 K | 79.95 ± 6.4
366.63 K | 81.35 ± 6.5
367.04 K | 82.63 ± 6.6
367.47 K | 84.03 ± 6.7
367.88 K | 85.39 ± 6.8
368.27 K | 86.71 ± 6.9
368.68 K | 88.05 ± 7
369.08 K | 89.41 ± 7.2
369.43 K | 90.67 ± 7.2
369.79 K | 91.91 ± 7.3
370.19 K | 93.33 ± 7.5
370.56 K | 94.44 ± 7.6
370.94 K | 96 ± 7.7
371.32 K | 97.35 ± 7.8
371.65 K | 98.59 ± 7.9

— the NIST ThermoML archive (doi:10.1021/je900050z)
